In PubChem BioAssay AID2060897 (Molecular Pharmacology Branch, DTP, NCI, 2025) one finds IC50 and viability, T/C data, which are given here for two compounds.

Some results are limits rather than exact numbers.

Usually IC50 stands for the concentration that gives 50% inhibition. One may read the viability, T/C as the result in the treated group divided by that in the control group, in per cent.

The experiment has as its system 966289-007-R4-J1-PDC complex spheroid viability. The experiment can be described thus: Anticancer human tumor 966289-007-R4-J1-PDC patient-derived pancreatic adenocarcinoma cell line growth inhibition [RAS]. As to conditions: for viability, T/C: stronger effect = lower value. A digest of the protocol: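 Multi-cell-type spheroids: tumor cells plus HUVEC endothelial cells and mesenchymal stem cells. RAS-pathway inhibitors were combined with targeted agents, each dosed in half-log steps down from clinical Cmax, or from 10 microM when Cmax was unknown.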
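Further: spheroids exposed to agents for one week before readout.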
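Wherever viability, T/C is given: percent viability relative to DMSO vehicle control wells as 100%.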

Take `C[C@@H](NC(=O)c1ncnc(N)c1Cl)c1ncc(C(=O)Nc2cc(C(F)(F)F)c(Cl)cn2)s1` + CCn1c(-c2cccnc2C(C)OC)c2c3cc(ccc31)N1CCOC(CC(NC(=O)C(C(C)C)N(C)C(=O)C3(F)CCN(C(=O)C#CC(C)(C)N(C)C)CC3)C(=O)N3CCCC(N3)C(=O)OCC(C)(C)C2)C1: the IC50 was more than 10 µM (curve of first compound, second compound 0.000949 µM); more than 10 µM (curve of first compound, second compound 0.003 µM); more than 10 µM (curve of first compound, second compound 0.00949 µM); more than 10 µM (curve of first compound, second compound 0.03 µM); more than 10 µM (curve of first compound, second compound 0.0949 µM); more than 10 µM (curve of first compound, second compound 0.3 µM). Moreover, the viability, T/C (second compound 0.000949 µM, first compound 0.0316 µM) was 115%; the viability, T/C (second compound 0.000949 µM, first compound 0.1 µM) is 92.1%; the viability, T/C (second compound 0.000949 µM, first compound 0.316 µM) is 91.9%; the viability, T/C (second compound 0.000949 µM, first compound 1 µM) was 47.5%; the viability, T/C (second compound 0.000949 µM, first compound 3.16 µM) is 66.5%; the viability, T/C (second compound 0.000949 µM, first compound 10 µM) is 100%. Besides, the viability, T/C was 92.5% (second compound 0.003 µM, first compound 0.0316 µM); 75.4% (second compound 0.003 µM, first compound 0.1 µM); 118% (second compound 0.003 µM, first compound 0.316 µM); 61% (second compound 0.003 µM, first compound 1 µM); 72.3% (second compound 0.003 µM, first compound 3.16 µM); 118% (second compound 0.003 µM, first compound 10 µM). In addition, the viability, T/C reads like this: (second compound 0.00949 µM, first compound 0.0316 µM) 70.2%; (second compound 0.00949 µM, first compound 0.1 µM) 80.6%; (second compound 0.00949 µM, first compound 0.316 µM) 71.3%; (second compound 0.00949 µM, first compound 1 µM) 85%; (second compound 0.00949 µM, first compound 3.16 µM) 115%; (second compound 0.00949 µM, first compound 10 µM) 111%. Also, the viability, T/C is 55.4% (second compound 0.03 µM, first compound 0.0316 µM); 57.1% (second compound 0.03 µM, first compound 0.1 µM); 81% (second compound 0.03 µM, first compound 0.316 µM); 73.5% (second compound 0.03 µM, first compound 1 µM); 120% (second compound 0.03 µM, first compound 3.16 µM); 98.5% (second compound 0.03 µM, first compound 10 µM). In addition, the viability, T/C is 55.5% (second compound 0.0949 µM, first compound 0.0316 µM); 99.1% (second compound 0.0949 µM, first compound 0.1 µM); 87% (second compound 0.0949 µM, first compound 0.316 µM); 78.2% (second compound 0.0949 µM, first compound 1 µM); 106% (second compound 0.0949 µM, first compound 3.16 µM); 134% (second compound 0.0949 µM, first compound 10 µM). The viability, T/C is, setting by setting: (second compound 0.3 µM, first compound 0.0316 µM) 65.6%; (second compound 0.3 µM, first compound 0.1 µM) 91.7%; (second compound 0.3 µM, first compound 0.316 µM) 90.5%; (second compound 0.3 µM, first compound 1 µM) 117%; (second compound 0.3 µM, first compound 3.16 µM) 146%; (second compound 0.3 µM, first compound 10 µM) 105%.
As to `C=CC(=O)Nc1cc(Nc2nccc(-c3cn(C)c4ccccc34)n2)c(OC)cc1N(C)CCN(C)C`, under “compound 0.0316 µM”, the viability, T/C was 100% [middle of 4 runs]. Besides, the IC50 (curve of compound) is more than 1 µM.
